pEC50, pIC50: −log10 of the molar value. Read-outs that look alike come from different tables or passages of the source.
What was measured:
[1] = target: T1, full length Keap1 protein / full length NRF2 protein (Homo sapiens, UniProt Q14145); test: NRF2-Keap1 TR-FRET Low Protein Assay; type: binding; details: 1.25 nM Keap1 FlagHis and 2.5 nM biotin-NRF2 added
T1 construct: full length NRF2 protein and full length Keap1 protein (Keap1 exists a dimer) are used; His
How it was run: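 Flag-tagged full-length Keap1 was preincubated with compound (3-fold series) for 2.25 h at 37 °C in Tris pH 8.0/MgCl2/NaCl/BSA/DTT/CHAPS. Biotin-Avi-NRF2 (added at 2.5 nM) was then bound for 1.25 h at 4 °C. Eu-streptavidin/anti-Flag-APC TR-FRET (665/615 nm) was read after 1 h at RT, and pIC50 came from a four-parameter fit.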

[2] = system: NQO1 specific enzyme activity in BEAS-2B cells (marker for NRF2 activation); test: BEAS-2B NQO1 MTT Assay; type: cell-based; details: Homo sapiens, compound incubated 48 hours, read-out: EC50 (NQO1 specific enzyme activity induction)
How it was run: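 NQO1 specific activity induction is derived from the rate of MTT reduction (ΔOD/min, 570 nm, 30 min kinetic read) in crude lysates of BEAS-2B cells exposed to compound for 48 h. A 3-parameter fit gives EC50, reported as pEC50; part of each lysate goes to Cell Titer Glo.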

T1 sequence (Q14145 whole entry): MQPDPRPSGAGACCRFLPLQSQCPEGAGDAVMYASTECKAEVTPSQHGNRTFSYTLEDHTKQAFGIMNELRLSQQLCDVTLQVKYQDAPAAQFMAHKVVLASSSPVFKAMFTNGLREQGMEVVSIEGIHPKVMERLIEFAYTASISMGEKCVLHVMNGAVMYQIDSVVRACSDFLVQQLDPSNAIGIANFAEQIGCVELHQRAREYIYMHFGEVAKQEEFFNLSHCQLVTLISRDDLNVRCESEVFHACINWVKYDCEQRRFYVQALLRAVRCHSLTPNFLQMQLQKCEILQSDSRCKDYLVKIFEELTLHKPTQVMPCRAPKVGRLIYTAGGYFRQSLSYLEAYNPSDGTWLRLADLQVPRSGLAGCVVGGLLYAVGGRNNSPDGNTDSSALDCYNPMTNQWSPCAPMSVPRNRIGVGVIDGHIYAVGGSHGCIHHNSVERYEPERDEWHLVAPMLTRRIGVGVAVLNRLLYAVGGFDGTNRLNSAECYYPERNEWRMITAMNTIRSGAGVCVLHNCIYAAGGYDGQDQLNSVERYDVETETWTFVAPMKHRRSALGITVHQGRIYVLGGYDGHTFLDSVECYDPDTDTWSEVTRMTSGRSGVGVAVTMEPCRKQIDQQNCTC

Compound | pIC50 [1] | pEC50 [2] | pEC50 ([2]; BEAS-2B, 48 h)
CCn1cc([C@H]2C[C@@H]2c2c(C(=O)O)cnn2-c2cccc(-c3cccc(OC(C)C4CCCCC4)c3)c2)nn1 (mixture of isomers) [Example 192, 1-(3′-(1-cyclohexylethoxy)-[1,1′-biphenyl]-3-yl)-5-((1,2-trans)-2-(1-ethyl-1H-1,2,3-triazol-4-yl)cyclopropyl)-1H-pyrazole-4-carboxylic acid] | 7.00 to 8.00 | 8.00 to 9.00 | –
CCC[C@@H]1CCCCN1C(=O)c1cccc(-c2cccc(-n3ncc(C(=O)O)c3[C@H]3C[C@@H]3c3cn(CC)nn3)c2)c1 (racemic) [Example 201, 5-((1,2-trans)-2-(1-Ethyl-1H-1,2,3-triazol-4-yl)cyclopropyl)-1-(3′-((R)-2-propylpiperidine-1-carbonyl)-[1,1′-biphenyl]-3-yl)-1H-pyrazole-4-carboxylic acid] | > 8.00 | – | 6.00 to 7.00
Cn1cc([C@@H]2C[C@H]2c2c(C(=O)O)cnn2-c2cccc(-c3cncc(OCC4CCCCC4)c3)c2)nn1 (racemic) [Example 246, 1-(3-(5-(Cyclohexylmethoxy)pyridin-3-yl)phenyl)-5-(trans-2-(1-methyl-1H-1,2,3-triazol-4-yl)cyclopropyl)-1H-pyrazole-4-carboxylic Acid] | 6.00 to 7.00 | 5.00 to 6.00 | –
CCC[C@@H]1CCCCN1C(=O)c1cccc(-c2cc(C)cc(-n3ncc(C(=O)O)c3[C@@H]3C[C@H]3c3cn(C)nn3)c2)c1 (single isomer, unassigned) [Example 155] | > 8.00 | – | 6.00 to 7.00
O=C(O)c1cnn(-c2cccc(-c3cccc(C(=O)N(CC4CCCC4)CC4CC4)c3F)c2)c1C1CC1 [Example 14, 1-(3-{3-[(Cyclopentylmethyl)(cyclopropylmethyl)carbamoyl]-2-fluorophenyl}phenyl)-5-cyclopropyl-1H-pyrazole-4-carboxylic Acid] | 7.00 to 8.00 | 6.00 to 7.00 | –
CCCC1CCCCN1C(=O)c1cccc(-c2cccc(-n3ncc(C(=O)O)c3C3CC3)c2)c1F (stereo not shown) [Example 17, 5-Cyclopropyl-1-{3-[2-fluoro-3-(2-propylpiperidine-1-carbonyl)phenyl]phenyl}-1H-pyrazole-4-carboxylic Acid] | 7.00 to 8.00 | 6.00 to 7.00 | –
C[C@@H]1CCC[C@H](C)N1C(=O)c1cccc(-c2cccc(-n3ncc(C(=O)O)c3C3CC3)c2)c1F [Example 21, 5-Cyclopropyl-1-(3-{3-[(2R,6S)-2,6-dimethylpiperidine-1-carbonyl]-2-fluorophenyl}phenyl)-1H-pyrazole-4-carboxylic Acid] | 6.00 to 7.00 | 6.00 to 7.00 | –
CCCC1CCCCN1C(=O)c1cccc(-c2cccc(-n3ncc(C(=O)O)c3C3CC3c3cccnn3)c2)c1 (stereo not shown) [Example 41, 1-[3′-(2-Propyl-piperidine-1-carbonyl)-biphenyl-3-yl]-5-(2-pyridazin-3-yl-cyclopropyl)-1H-pyrazole-4-carboxylic Acid] | > 8.00 | – | 5.00 to 6.00
CCCC1CCCCN1C(=O)c1cccc(-c2cccc(-n3ncc(C(=O)O)c3C3CC3c3cn(C)nn3)c2)c1 (stereo not shown) [Example 42, 5-[2-(1-methyl-1H-1,2,3-triazol-4-yl)cyclopropyl]-1-{3-[3-(2-propylpiperidine-1-carbonyl)phenyl]phenyl}-1H-pyrazole-4-carboxylic Acid] | > 8.00 | – | 6.00 to 7.00
CCC[C@@H]1CCCCN1C(=O)c1cccc(-c2cccc(-n3ncc(C(=O)O)c3[C@H]3C[C@@H]3c3cn(C)nn3)c2)c1 [Example 51g, 5-[(1S,2S)-2-(1-methyl-1H-1,2,3-triazol-4-yl)cyclopropyl]-1-(3-{3-[(2R)-2-propylpiperidine-1-carbonyl]phenyl}phenyl)-1H-pyrazole-4-carboxylic Acid] | 6.00 to 7.00 | – | 5.00 to 6.00

The next lines start with results.

pIC50 [1] | Compound | pEC50 [2] | pEC50 ([2]; BEAS-2B, 48 h)
7.00 to 8.00 | CO[C@H]1CC[C@H](COc2cccc(-c3cccc(-n4ncc(C(=O)O)c4[C@H]4C[C@@H]4c4cn(C)nn4)c3)c2)CC1 (racemic) [Example 176, 1-(3′-(((1R,4S)-4-Methoxycyclohexyl)methoxy)-[1,1′-biphenyl]-3-yl)-5-((1,2-trans)-2-(1-methyl-1H-1,2,3-triazol-4-yl)cyclopropyl)-1H-pyrazole-4-carboxylic acid] | 6.00 to 7.00 | –
6.00 to 7.00 | COC1CCCCC1COc1cccc(-c2cccc(-n3ncc(C(=O)O)c3[C@H]3C[C@@H]3c3cn(C)nn3)c2)c1 (mixture of isomers) [Example 177, 1-(3′-((2-Methoxycyclohexyl)methoxy)-[1,1′-biphenyl]-3-yl)-5-((1,2-trans)-2-(1-methyl-1H-1,2,3-triazol-4-yl)cyclopropyl)-1H-pyrazole-4-carboxylic acid] | 6.00 to 7.00 | –
7.00 to 8.00 | COC1CCCC(COc2cccc(-c3cccc(-n4ncc(C(=O)O)c4[C@H]4C[C@@H]4c4cn(C)nn4)c3)c2)C1 (mixture of isomers) [Example 178, 1-(3′-((3-Methoxycyclohexyl)methoxy)-[1,1′-biphenyl]-3-yl)-5-((1,2-trans)-2-(1-methyl-1H-1,2,3-triazol-4-yl)cyclopropyl)-1H-pyrazole-4-carboxylic acid] | 6.00 to 7.00 | –
7.00 to 8.00 | Cn1cc([C@H]2C[C@@H]2c2c(C(=O)O)cnn2-c2cccc(-c3cccc(OC[C@H]4CC[C@H](Cl)CC4)c3)c2)nn1 (racemic) [Example 185, 1-(3′-((4-Chlorocyclohexyl)methoxy)-[1,1′-biphenyl]-3-yl)-5-((1,2-trans)-2-(1-methyl-1H-1,2,3-triazol-4-yl)cyclopropyl)-1H-pyrazole-4-carboxylic Acid] | 7.00 to 8.00 | –
7.00 to 8.00 | Cn1cc([C@H]2C[C@@H]2c2c(C(=O)O)cnn2-c2cccc(-c3cccc(OCC4CCCC(Cl)C4)c3)c2)nn1 (mixture of isomers) [Example 187, 1-(3′-((3-chlorocyclohexyl)methoxy)-[1,1′-biphenyl]-3-yl)-5-((1,2-trans)-2-(1-methyl-1H-1,2,3-triazol-4-yl)cyclopropyl)-1H-pyrazole-4-carboxylic acid] | 7.00 to 8.00 | –
7.00 to 8.00 | CC(Oc1cccc(-c2cccc(-n3ncc(C(=O)O)c3[C@H]3C[C@@H]3c3cn(C)nn3)c2)c1)C1CCCCCC1 (mixture of isomers) [Example 230, 1-(3′-(1-Cycloheptylethoxy)-[1,1′-biphenyl]-3-yl)-5-((1,2-trans)-2-(1-methyl-1H-1,2,3-triazol-4-yl)cyclopropyl)-1H-pyrazole-4-carboxylic acid] | 8.00 to 9.00 | –
6.00 to 7.00 | Cn1cc([C@H]2C[C@@H]2c2c(C(=O)O)cnn2-c2cccc(-c3cccc(OCc4ccc(-c5ccccc5)cc4)c3)c2)nn1 (racemic) [Example 237, 1-(3′-([1,1′-Biphenyl]-4-ylmethoxy)-[1,1′-biphenyl]-3-yl)-5-((1,2-trans)-2-(1-methyl-1H-1,2,3-triazol-4-yl)cyclopropyl)-1H-pyrazole-4-carboxylic Acid] | 6.00 to 7.00 | –
6.00 to 7.00 | Cn1cc([C@H]2C[C@@H]2c2c(C(=O)O)cnn2-c2cccc(-c3cccc(OCc4cccc(-c5ccccc5)c4)c3)c2)nn1 (racemic) [Example 238, 1-(3′-([1,1′-Biphenyl]-3-ylmethoxy)-[1,1′-biphenyl]-3-yl)-5-((1,2- trans)-2-(1-methyl-1H-1,2,3-triazol-4-yl)cyclopropyl)-1H-pyrazole-4-carboxylic acid] | 6.00 to 7.00 | –
6.00 to 7.00 | CC(Oc1cccc(-c2cccc(-n3ncc(C(=O)O)c3[C@H]3C[C@@H]3c3cn(C)nn3)c2)c1)c1cccc(-c2ccccc2)c1 (mixture of isomers) [Example 239, 1-(3′-(1-([1,1′-Biphenyl]-3-yl)ethoxy)-[1,1′-biphenyl]-3-yl)-5-((1,2-trans)-2-(1-methyl-1H-1,2,3-triazol-4-yl)cyclopropyl)-1H-pyrazole-4-carboxylic Acid] | 6.00 to 7.00 | –
6.00 to 7.00 | CC(Oc1cccc(-c2cccc(-n3ncc(C(=O)O)c3[C@H]3C[C@@H]3c3cn(C)nn3)c2)c1)c1ccc(-c2ccccc2)cc1 (mixture of isomers) [Example 240, 1-(3′-(1-([1,1′-Biphenyl]-4-yl)ethoxy)-[1,1′-biphenyl]-3-yl)-5-((1,2- trans)-2-(1-methyl-1H-1,2,3-triazol-4-yl)cyclopropyl)-1H-pyrazole-4-carboxylic acid] | 6.00 to 7.00 | –
7.00 to 8.00 | Cn1cc([C@@H]2C[C@H]2c2c(C(=O)O)cnn2-c2cccc(-c3cccc(OCCC4CCCCC4)c3)c2)nn1 (racemic) [Example 245, 1-(3′-(2-cyclohexylethoxy)-[1,1′-biphenyl]-3-yl)-5-(trans-2-(1-methyl-1H-1,2,3-triazol-4-yl)cyclopropyl)-1H-pyrazole-4-carboxylic Acid] | 7.00 to 8.00 | –
6.00 to 7.00 | CC(Oc1cccc(-c2cccc(-n3ncc(C(=O)O)c3[C@H]3C[C@@H]3c3cn(C)nn3)c2)c1)C1CCCCC1 (single isomer, unassigned) [Example 191] | – | 6.00 to 7.00
> 8.00 | Cn1cc([C@H]2C[C@@H]2c2c(C(=O)O)cnn2-c2cccc(-c3cccc(-n4ncc5c4C(C)(C)CC5)c3)c2)nn1 (stereo in doubt) [Example 208, 1-(3′-(6,6-Dimethyl-5,6-dihydrocyclopenta[c]pyrazol-1(4H)-yl)-[1,1′-biphenyl]-3-yl)-5-((1S,2S)-2-(1-methyl-1H-1,2,3-triazol-4-yl)cyclopropyl)-1H-pyrazole-4-carboxylic Acid] | 7.00 to 8.00 | –
